According to ChEMBL document CHEMBL1123145, “Synthesis of pyrrolizidine alkaloids indicine, intermedine, lycopsamine, and analogues and their N-oxides. Potential antitumor agents” (1985):

Legend:
Assay type in all cases: functional, Mus musculus
P388 [1] = test: Number of Survivors determined for antitumor activity against P388 Lymphocytic Leukemia system on day 5 at a dose of 17 mg/kg (6 out of 6)
P388 [2] = test: Number of Survivors determined for antitumor activity against P388 Lymphocytic Leukemia system on day 5 at a dose of 34 mg/kg (6 out of 6)
P388 [3] = test: Survival rate of the animals determined for antitumor activity against P388 Lymphocytic Leukemia system at a dose of 17 mg/kg
P388 [4] = test: Survival rate of the animals determined for antitumor activity against P388 Lymphocytic Leukemia system at a dose of 34 mg/kg
P388 [5] = test: Number of Survivors determined for antitumor activity against P388 Lymphocytic Leukemia system on day 5 at a dose of 68 mg/kg(6 out of 6)
P388 [6] = test: Number of Survivors determined for antitumor activity against P388 Lymphocytic Leukemia system on day 5 at a dose of 8.5 mg/kg(6 out of 6)
P388 [7] = test: Weight difference observed in survivors treated for antitumor activity against P388 Lymphocytic Leukemia system at a dose of 17 mg/kg
P388 [8] = test: Survival rate of the animals determined for antitumor activity against P388 Lymphocytic Leukemia system at a dose of 68 mg/kg
P388 [9] = test: Survival rate of the animals determined for antitumor activity against P388 Lymphocytic Leukemia system at a dose of 8.5 mg/kg
P388 [10] = test: Weight difference observed in survivors treated for antitumor activity against P388 Lymphocytic Leukemia system at a dose of 34 mg/kg
P388 [11] = test: Weight difference observed in survivors treated for antitumor activity against P388 Lymphocytic Leukemia system at a dose of 68 mg/kg
P388 [12] = test: Weight difference observed in survivors treated for antitumor activity against P388 Lymphocytic Leukemia system at a dose of 8.5 mg/kg
P388 [13] = test: Number of Survivors determined for antitumor activity against P388 Lymphocytic Leukemia system on day 5 at a dose of 120 mg/kg (6 out of 6)
P388 [14] = test: Number of Survivors determined for antitumor activity against P388 Lymphocytic Leukemia system on day 5 at a dose of 15 mg/kg (6 out of 6)
P388 [15] = test: Survival rate of the animals determined for antitumor activity against P388 Lymphocytic Leukemia system at a dose of 15 mg/kg
P388 [16] = test: Number of Survivors determined for antitumor activity against P388 Lymphocytic Leukemia system on day 5 at a dose of 240 mg/kg (6 out of 6)
P388 [17] = test: Number of Survivors determined for antitumor activity against P388 Lymphocytic Leukemia system on day 5 at a dose of 30 mg/kg (6 out of 6)
P388 [18] = test: Survival rate of the animals determined for antitumor activity against P388 Lymphocytic Leukemia system at a dose of 240 mg/kg
P388 [19] = test: Survival rate of the animals determined for antitumor activity against P388 Lymphocytic Leukemia system at a dose of 30 mg/kg
P388 [20] = test: Number of Survivors determined for antitumor activity against P388 Lymphocytic Leukemia system on day 5 at a dose of 480 mg/kg(6 out of 6)
P388 [21] = test: Number of Survivors determined for antitumor activity against P388 Lymphocytic Leukemia system on day 5 at a dose of 60 mg/kg (6 out of 6)
P388 [22] = test: Survival rate of the animals determined for antitumor activity against P388 Lymphocytic Leukemia system at a dose of 480 mg/kg
P388 [23] = test: Survival rate of the animals determined for antitumor activity against P388 Lymphocytic Leukemia system at a dose of 60 mg/kg
P388 [24] = test: Survival rate of the animals determined for antitumor activity against P388 Lymphocytic Leukemia system at a dose of 120 mg/kg
P388 [25] = test: Weight difference observed in survivors treated for antitumor activity against P388 Lymphocytic Leukemia system at a dose of 240 mg/kg
P388 [26] = test: Weight difference observed in survivors treated for antitumor activity against P388 Lymphocytic Leukemia system at a dose of 30 mg/kg
P388 [27] = test: Weight difference observed in survivors treated for antitumor activity against P388 Lymphocytic Leukemia system at a dose of 480 mg/kg
P388 [28] = test: Weight difference observed in survivors treated for antitumor activity against P388 Lymphocytic Leukemia system at a dose of 60 mg/kg
P388 [29] = test: Weight difference observed in survivors treated for antitumor activity against P388 Lymphocytic Leukemia system at a dose of 120 mg/kg
P388 [30] = test: Weight difference observed in survivors treated for antitumor activity against P388 Lymphocytic Leukemia system at a dose of 15 mg/kg
P388 [31] = test: Number of Survivors determined for antitumor activity against P388 Lymphocytic Leukemia system on day 5 at a dose of 240 mg/kg ([…])
P388 [32] = test: Number of Survivors determined for antitumor activity against P388 Lymphocytic Leukemia system on day 5 at a dose of 10.5 mg/kg (6 out of 6)
P388 [33] = test: Number of Survivors determined for antitumor activity against P388 Lymphocytic Leukemia system on day 5 at a dose of 21 mg/kg(6 out of 6)
P388 [34] = test: Weight difference observed in survivors treated for antitumor activity against P388 Lymphocytic Leukemia system at a dose of 84 mg/kg
P388 [35] = test: Survival rate of the animals determined for antitumor activity against P388 Lymphocytic Leukemia system at a dose of 21 mg/kg
P388 [36] = test: Number of Survivors determined for antitumor activity against P388 Lymphocytic Leukemia system on day 5 at a dose of 42 mg/kg(6 out of 6)
P388 [37] = test: Weight difference observed in survivors treated for antitumor activity against P388 Lymphocytic Leukemia system at a dose of 21 mg/kg
P388 [38] = test: Number of Survivors determined for antitumor activity against P388 Lymphocytic Leukemia system on day 5 at a dose of 42 mg/kg
P388 [39] = test: Survival rate of the animals determined for antitumor activity against P388 Lymphocytic Leukemia system at a dose of 10.5 mg/kg
P388 [40] = test: Weight difference observed in survivors treated for antitumor activity against P388 Lymphocytic Leukemia system at a dose of 42 mg/kg
P388 [41] = test: Weight difference observed in survivors treated for antitumor activity against P388 Lymphocytic Leukemia system at a dose of 10.5 mg/kg
P388 [42] = test: Number of Survivors determined for antitumor activity against P388 Lymphocytic Leukemia system on day 5 at a dose of 84 mg/kg(6 out of 6)
P388 [43] = test: Survival rate of the animals determined for antitumor activity against P388 Lymphocytic Leukemia system at a dose of 84 mg/kg
P388 [44] = test: Survival rate of the animals determined for antitumor activity against P388 Lymphocytic Leukemia system at a dose of 192 mg/kg
P388 [45] = test: Weight difference observed in survivors treated for antitumor activity against P388 Lymphocytic Leukemia system at a dose of 192 mg/kg
P388 [46] = test: Weight difference observed in survivors treated for antitumor activity against P388 Lymphocytic Leukemia system at a dose of 96 mg/kg
P388 [47] = test: Survival rate of the animals determined for antitumor activity against P388 Lymphocytic Leukemia system at a dose of 48 mg/kg
P388 [48] = test: Weight difference observed in survivors treated for antitumor activity against P388 Lymphocytic Leukemia system at a dose of 24 mg/kg
P388 [49] = test: Weight difference observed in survivors treated for antitumor activity against P388 Lymphocytic Leukemia system at a dose of 48 mg/kg
P388 [50] = test: Number of Survivors determined for antitumor activity against P388 Lymphocytic Leukemia system on day 5 at a dose of 96 mg/kg(5 out of 6)
P388 [51] = test: Survival rate of the animals determined for antitumor activity against P388 Lymphocytic Leukemia system at a dose of 96 mg/kg

Row | SMILES | Survivors (P388 [13]) | Survivors (P388 [14]) | T/C (P388 [15]) [%] | Survivors (P388 [17]) | T/C (P388 [18]) [%] | T/C (P388 [19]) [%] | Survivors (P388 [20]) | Survivors (P388 [21]) | T/C (P388 [22]) [%] | T/C (P388 [23]) [%] | T/C (P388 [24]) [%] | T-C (P388 [25]) | T-C (P388 [26]) | T-C (P388 [27]) | T-C (P388 [28]) | T-C (P388 [29]) | T-C (P388 [30]) | also measured
1 | CC(O)C(C)(O)C(=O)OCC1=CC[N+]2([O-])CC[C@@H](O)[C@@H]12 (stereo partly drawn) |  |  |  |  |  |  |  |  |  |  |  |  |  |  |  |  |  | Survivors (P388 [1]): 6; Survivors (P388 [2]): 6; T/C (P388 [3]): 117%; T/C (P388 [4]): 127%; Survivors (P388 [5]): 6; Survivors (P388 [6]): 6; T-C (P388 [7]): 0; T/C (P388 [8]): 131%; T/C (P388 [9]): 115%; T-C (P388 [10]): -0.4; T-C (P388 [11]): -0.4; T-C (P388 [12]): -0.3
2 | CC(C)CC(=O)OCC1=CCN2CC[C@@H](O)[C@@H]12 | 6 | 6 | 105 | 6 | 108 | 109 | 6 | 6 | 114 | 105 | 108 | -0.8 | -0.3 | -2.7 | -0.4 | -0.1 | -0.6 | Survivors (P388 [16]): 6
3 | O=C(Cc1ccccc1)OCC1=CCN2CC[C@@H](O)[C@@H]12 | 6 | 6 | 97 | 6 | 105 | 99 | 6 | 6 | 116 | 97 | 109 | -0.1 | -0.5 | -2.1 | -0.3 | -0.6 | -0.8 | Survivors (P388 [31]): 6
4 | O=C(Cc1ccccc1)OCC1=CC[N+]2([O-])CC[C@@H](O)C12.O=C(OCC1=CC[N+]2([O-])CC[C@@H](O)C12)c1ccccc1 (stereo partly drawn) |  |  |  |  |  |  |  |  |  |  |  |  |  |  |  |  |  | Survivors (P388 [32]): 6; Survivors (P388 [33]): 6; T-C (P388 [34]): 0.1; T/C (P388 [35]): 108%; Survivors (P388 [36]): 6; T-C (P388 [37]): -0.1; T/C (P388 [38]): 117%; T/C (P388 [39]): 104%; T-C (P388 [40]): 0.3; T-C (P388 [41]): 0; Survivors (P388 [42]): 6; T/C (P388 [43]): 114%
5 | CC(C)C(O)(C(=O)OCC1=CC[N+]2([O-])CC[C@@H](O)C12)C(C)O (stereo in doubt; form 2) |  |  |  |  |  |  |  |  |  |  |  |  |  |  |  |  |  | T/C (P388 [44]): 118%; T-C (P388 [45]): -4.8; T-C (P388 [46]): 0.1; T/C (P388 [47]): 100%; T-C (P388 [48]): -0.4; T-C (P388 [49]): 1.3; Survivors (P388 [50]): 5; T/C (P388 [51]): 116%
